Test results taken from patent publication US20260315484A1, “METHODS OF TREATING CANCER IN BCL2 INHIBITOR NAIVE SUBJECTS” (Curis, Inc., priority 2023, published 2026).

Legend:
[1] = test system: bone marrow (BM) blasts; assay: Clinical study of change in bone marrow blasts, BLC2 inhibitor naive vs prior-exposed patients; type: in vivo, human patients
From the text: FIG. 1A is a graph showing the results of a clinical study for the efficacy of emavusertib (Compound 1) administration on reducing bone marrow (BM) blasts in patients with blood cancer. Blasts are immature white blood cells that are usually found in small numbers in healthy bone marrow. High levels of blasts circulating in the blood are associated with cancer. This clinical study measured the change in blast levels before and after receiving Compound 1 treatment. Here, the relative change in blast levels before and after Compound 1 is compared between patients who had previously received BLC2 inhibitors in prior treatment and patients who were naïve to BLC2 inhibitors. The comparison groups each contain 22 high risk myelodysplastic syndrome (hrMDS) patients and 10 acute myeloid leukemia (AML) patients.
FIG. 1B is a graph showing baseline and best post-treatment blast levels of the subjects in FIG. 1A. […] Each patient is shaded according to their diagnosis, with high-risk myelodysplastic syndrome (MDS) patients tending to have lower blast levels than acute myeloid leukemia (AML) patients.
To support the development of effective treatment regimens with Compound 1, a study was conducted to monitor bone marrow (BM) samples obtained from AML and high risk MDS patients with different prior histories of treatment.
• Pharmacokinetic parameters of Compound 1 measured by Cmax, Cmin, Tmax, AUC0-24, AUC0-inf, and T1/2 (time frame 24 months) • Clinical response in AML or hrMDS assessed as follows: • AML: • Proportion of patients who reach CR+CRh • Proportion of patients who reach CRi, or CR or CRh • hrMDS: overall response rate of CR+PR+mCR • Transfusion independence
This is a Phase 1, open-label dose escalation and cohort expansion study of Compound 1 as a monotherapy in patients with AML or MDS and in combination with AZA in treatment-naïve, adult patients with AML or hrMDS, after first line therapy.

[2] = test system: AML and high-risk MDS; assay: Ongoing Phase 1 study in relapsed/refractory AML and high-risk MDS; type: in vivo, human patients; conditions: patients with relapsed/refractory AML and high-risk MDS
Description: To support the development of effective treatment regimens with Compound 1, a study was conducted to monitor bone marrow (BM) samples obtained from AML and high risk MDS patients with different prior histories of treatment. […]
• MTD (defined as the highest dose at which there is <33% dose-limiting toxicity rate in the first cycle of treatment in a minimum of 6 patients [time frame: 28 days]) • RP2D (determined by the Sponsor in consultation with the CSC, considering all aspects of safety, tolerability, biologic activity, pharmacokinetic and preliminary efficacy in the trial population [time frame: 24 months]) • Safety measured by adverse events, ECGs, chemistry and hematology laboratory values, vital signs, and physical examinations […]
• Pharmacokinetic parameters of Compound 1 measured by Cmax, Cmin, Tmax, AUC0-24, AUC0-inf, and T1/2 (time frame 24 months) • Clinical response in AML or hrMDS assessed as follows: • AML: • Proportion of patients who reach CR+CRh • Proportion of patients who reach CRi, or CR or CRh • hrMDS: overall response rate of CR+PR+mCR • Transfusion independence […]

[3] = Study Compound 1-101 (safety, exposure, activity at 200 mg BID); type: in vivo
From the text: Three patients with AML or MDS will be enrolled at the designated dose. If none of the first 3 patients experience a dose-limiting toxicity during the first cycle, patients may be enrolled into the next higher dose level. If 1 patient out of the first 3 experiences a dose-limiting toxicity, the dose level may be expanded with an additional 3 patients.

Cc1cc(-c2nc(C(=O)Nc3cc4oc(N5CCOCC5)nc4nc3N3CC[C@@H](O)C3)co2)ccn1 [Compound 1]
rate of response to Compound 1, as evidenced by reduced BM blast counts ([1]; AML and high risk MDS, no history of BLC2 inhibitor treatment vs prior exposure): higher rate of response to Compound 1, as evidenced by reduced BM blast counts in hematology, compared to patients who had prior exposure to a BLC2 inhibitor | decrease in bone marrow blast counts from baseline to best post-baseline ([1]; no prior vs prior BLC2 inhibitor exposure, hrMDS and AML patients, FIG. 1B): significantly higher decreases in bone marrow blast counts from baseline to best post-baseline compared to those subjects with prior BLC2 inhibitor exposure | relative change in bone marrow blast levels before and after Compound 1 ([1]; patients naive to BLC2 inhibitors (e.g., venetoclax) vs previously exposed, comparison groups each 22 hrMDS and 10 AML, FIG. 1A): significant reduction in blasts compared to those who had been previously exposed to BLC2 inhibitors | clinical activity [2]: demonstrated clinical activity | biologic activity and clinical efficacy [3]: demonstrating signs of biologic activity and clinical efficacy | drug exposure [3]: capable of achieving relevant levels of drug exposure | safety of starting dose [3]: safe
